In patent US7435837B2, “Dihydrobenzofuranyl alkanamine derivatives and methods for using same” (Wyeth, priority 2003, dated 2008):

Target: T1, human 5-HT2C receptor (Homo sapiens, UniProt P28335)
T1 sequence (P28335 33-458): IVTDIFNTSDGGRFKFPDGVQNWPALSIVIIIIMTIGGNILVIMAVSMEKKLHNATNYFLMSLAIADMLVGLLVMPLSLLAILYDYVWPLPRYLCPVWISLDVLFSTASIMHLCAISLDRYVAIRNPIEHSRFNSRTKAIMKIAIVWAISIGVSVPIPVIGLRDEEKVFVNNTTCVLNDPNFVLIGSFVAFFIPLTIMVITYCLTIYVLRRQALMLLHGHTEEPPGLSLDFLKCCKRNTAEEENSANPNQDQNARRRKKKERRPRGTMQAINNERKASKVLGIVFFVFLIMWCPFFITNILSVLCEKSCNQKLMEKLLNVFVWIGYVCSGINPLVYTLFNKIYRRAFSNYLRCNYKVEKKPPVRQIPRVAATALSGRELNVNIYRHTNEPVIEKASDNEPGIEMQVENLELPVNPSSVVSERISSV
Test: 5-HT2C receptor-stimulated calcium mobilization (FLIPR) in CHO cells;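 further: Fluo-3-AM fluorescence read on FLIPR every 1 s, agonist added after 10 baseline reads, response taken as peak minus lowest raw fluorescence count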
Assay type: cell-based
Details: for Emax: CHO, read-out: 5-HT2C Function Emax (%); for EC50: calcium mobilization, CHO cells stably expressing human 5-HT2C, read-out: 5-HT2C Function EC50

[1] = percentage of the response observed with a maximally effective concentration of 5-HT

| SMILES | Emax [1] | EC50 | 5-HT2C Function Emax (%) [1] |
| --- | --- | --- | --- |
| Fc1cc2c(c(-c3c(Cl)cccc3Cl)c1)OC(CNC1CC1)C2 (racemic) [Example 231, (±)-N-{[7-(2,6-dichlorophenyl)-5-fluoro-2,3-dihydro-1-benzofuran-2-yl]methyl}cyclopropanamine] | 80% | 0.4 nM |  |
| Fc1cc2c(c(-c3c(Cl)cccc3Cl)c1)OC(CNCC1CC1)C2 (racemic) [Example 232, (±)-1-cyclopropyl-N-{[7-(2,6-dichlorophenyl)-5-fluoro-2,3-dihydro-1-benzofuran-2-yl]methyl}methanamine] | 50% | 114 nM |  |
| Fc1cc2c(c(-c3c(Cl)cccc3Cl)c1)OC(CNC1CCC1)C2 (racemic) [Example 233, (±)-N-{[7-(2,6-dichlorophenyl)-5-fluoro-2,3-dihydro-1-benzofuran-2-yl]methyl}cyclobutanamine] | 20% | 614 nM |  |
| CCCNCC1Cc2cc(F)cc(-c3c(Cl)cccc3Cl)c2O1 (racemic) [Example 235, (±)-N-{[7-(2,6-dichlorophenyl)-5-fluoro-2,3-dihydro-1-benzofuran-2-yl]methyl}propan-1-amine] | 50% | 49 nM |  |
| Fc1cc2c(c(-c3c(Cl)cccc3Cl)c1)OC(CN1CCCCC1)C2 (racemic) [Example 238, (±)-1-{[7-(2,6-dichlorophenyl)-5-fluoro-2,3-dihydro-1-benzofuran-2-yl]methyl}piperidine] | 40% | 529 nM |  |
| Fc1cc2c(c(-c3c(Cl)cccc3Cl)c1)OC(CN1CCOCC1)C2 (racemic) [Example 239, (±)-1-{[7-(2,6-dichlorophenyl)-5-fluoro-2,3-dihydro-1-benzofuran-2-yl]methyl}morpholine] | 40% | 1430 nM |  |
| Fc1cc2c(c(-c3c(Cl)cccc3Cl)c1)OC(CN1CCCC1)C2 (racemic) [Example 240, (±)-1-{[7-(2,6-dichlorophenyl)-5-fluoro-2,3-dihydro-1-benzofuran-2-yl]methyl}pyrrolidine] | 70% | 89 nM |  |
| Cc1cccc(C)c1-c1cc(Cl)cc2c1OC(CNC1CC1)C2 (racemic) [Example 267, (±)-N-{[5-chloro-7-(2,6-dimethylphenyl)-2,3-dihydro-1-benzofuran-2-yl]methyl}cyclopropanamine] | 80% | 730 nM |  |
| Cc1cccc(C)c1-c1cc(Cl)cc2c1OC(CNCC1CC1)C2 (racemic) [Example 268, (±)-N-{[5-chloro-7-(2,6-dimethylphenyl)-2,3-dihydro-1-benzofuran-2-yl]methyl}(cyclopropylmethyl)amine] | 50% | 961 nM |  |
| Cc1cccc(C)c1-c1cc(Cl)cc2c1OC(CNC1CCC1)C2 (racemic) [Example 269, (±)-N-{[5-chloro-7-(2,6-dimethylphenyl)-2,3-dihydro-1-benzofuran-2-yl]methyl}cyclobutanamine] | 20% | 5120 nM |  |
| CCNCC1Cc2cc(Cl)cc(-c3c(C)cccc3C)c2O1 (racemic) [Example 271, (±)-N-{[5-chloro-7-(2,6-dimethylphenyl)-2,3-dihydro-1-benzofuran-2-yl]methyl}ethanamine] | 90% | 594 nM |  |
| Cc1cccc(C)c1-c1cc(Cl)cc2c1OC(CNC(C)C)C2 (racemic) [Example 272, (±)-N-{[5-chloro-7-(2,6-dimethylphenyl)-2,3-dihydro-1-benzofuran-2-yl]methyl}propan-2-amine] | 70% | 845 nM |  |
| CCCNCC1Cc2cc(Cl)cc(-c3c(C)cccc3C)c2O1 (racemic) [Example 278, (±)-N-{[5-chloro-7-(2,6-dimethylphenyl)-2,3-dihydro-1-benzofuran-2-yl]methyl}propan-1-amine] | 60% | 726 nM |  |
| Cc1cccc(C)c1-c1cc(Cl)cc2c1OC(CN1CCNCC1)C2 (racemic) [Example 279, (±)-1-{[5-chloro-7-(2,6-dimethylphenyl)-2,3-dihydro-1-benzofuran-2-yl]methyl}piperazine] | 70% | 155 nM |  |
| Cc1cccc(C)c1-c1cc(Cl)cc2c1OC(CN1CCCC1)C2 (racemic) [Example 280, (±)-1-{[5-chloro-7-(2,6-dimethylphenyl)-2,3-dihydro-1-benzofuran-2-yl]methyl}pyrrolidine] | 70% | 288 nM |  |

Other lines, results leading:

| Emax [1] | EC50 | 5-HT2C Function Emax (%) [1] | SMILES |
| --- | --- | --- | --- |
| 90% | 65 nM |  | Cc1cccc(-c2cccc3c2OC(CN)C3)c1C (racemic) [Example 154, (±)-1-[7-(2,3-dimethylphenyl)-2,3-dihydro-1-benzofuran-2-yl]methanamine] |
| 100% | 32 nM |  | NCC1Cc2cccc(-c3cccc(F)c3F)c2O1 (racemic) [Example 160, (±)-{[7-(2,3-difluorophenyl)-2,3-dihydro-1-benzofuran-2-yl]methyl}amine] |
| 90% | 11 nM |  | CCNCC1Cc2cc(F)cc(-c3c(Cl)cccc3Cl)c2O1 (racemic) [Example 234, (±)-N-{[7-(2,6-dichlorophenyl)-5-fluoro-2,3-dihydro-1-benzofuran-2-yl]methyl}ethanamine] |
| 70% | 123 nM |  | CC(C)NCC1Cc2cc(F)cc(-c3c(Cl)cccc3Cl)c2O1 (racemic) [Example 236, (±)-N-{[7-(2,6-dichlorophenyl)-5-fluoro-2,3-dihydro-1-benzofuran-2-yl]methyl}propan-2-amine] |
|  |  | 90% | NCC1Cc2cc(Cl)cc(-c3cccc(F)c3F)c2O1 (racemic) [Example 246, (±)-{[5-chloro-7-(2,3-difluorophenyl)-2,3-dihydro-1-benzofuran-2-yl]methyl}amine] |
| 70% | 330 nM |  | Cc1cccc(C)c1-c1cc(Cl)cc2c1OC(CN(C)C)C2 (racemic) [Example 274, (±)-{[5-chloro-7-(2,6-dimethylphenyl)-2,3-dihydro-1-benzofuran-2-yl]methyl}dimethylamine] |
| 80% | 0.2 nM |  | Clc1cccc(Cl)c1-c1cccc2c1OC(CNC1CC1)C2 (racemic) [Example 391, (±)-N-{[7-(2,6-dichlorophenyl)-2,3-dihydro-1-benzofuran-2-yl]methyl}cyclopropanamine] |
| 80% | 443 nM |  | CNCC1Cc2cccc(-c3cccc(C)c3C)c2O1 (racemic) [Example 422, (±)-[(N-methyl-1-[7-(2,3-dimethylphenyl)-2,3-dihydro-1-benzofuran-2-yl]methanamine] |
| 90% | 49 nM |  | CNCC1Cc2cccc(-c3ccc(F)cc3F)c2O1 (racemic) [Example 424, (±)-[(N-methyl-1-[7-(2,4-difluorophenyl)-2,3-dihydro-1-benzofuran-2-yl]methanamine] |
| 100% | 9 nM |  | CNCC1Cc2cccc(-c3ccc(Cl)cc3Cl)c2O1 (racemic) [Example 425, (±)-[(N-methyl-1-[7-(2,4-dichlorophenyl)-2,3-dihydro-1-benzofuran-2-yl]methanamine] |
| 100% | 17 nM |  | CNCC1Cc2cccc(-c3ccc(OC)cc3OC)c2O1 (racemic) [Example 426, (±)-[(N-methyl-1-[7-(2,4-dimethoxyphenyl)-2,3-dihydro-1-benzofuran-2-yl]methanamine] |
